For data set [1] the following is noted: cited from earlier work; for improvement over baseline versus placebo on the MADRS: endpoint week 8, pramipexole 1.0 mg/day, fluoxetine 20 mg/day.
For data set [2] the following is noted: high doses of pramipexole; cited from earlier work.

The text below walks through data of patent US20220071976A1 (CHASE THERAPEUTICS CORPORATION, priority 2018, published 2022).

Each structure is given as a SMILES string. “Also recorded” adds a separate entry of the source.

On to `CNCCC(Oc1ccc(C(F)(F)F)cc1)c1ccccc1` (stereo not shown) [fluoxetine], for which the “improvement over baseline versus placebo on the MADRS” value in data set [1] was “significantly better improvement over baseline than the placebo group”.

Consider `O=c1[nH]c2ccccc2n1CCCN1CCC(n2c(=O)[nH]c3cc(Cl)ccc32)CC1` [domperidone, 5-chloro-1-(1-[3-(2-oxo-2,3-dihydro-1H-benzo[d]imidazol-1-yl)propyl]piperidin-4-yl)-1H-benzo[d]imidazol-2(3H)-one], for which the “effect on dose-limiting gastro-intestinal adverse events of pramipexole” value (concomitant oral administration of domperidone with high doses of pramipexole) was “prevented the occurrence of dose-limiting gastro-intestinal adverse events; also recorded: attenuated dose-limiting gastro-intestinal adverse effects”.

As to `CCCN[C@H]1CCc2nc(N)sc2C1` [pramipexole, (S)-6-propylamino-4,5,6,7-tetrahydro-1,3-benzothiazole-2-amine], the “subjects reaching first intolerable dose FID-1” value (human, in vivo, po) is “All subjects reached FID-1”. Further, the dose limiting toxicity entry (pramipexole alone, single oral increasing doses) is recorded as “gastro-intestinal adverse events in all subjects”. For the same compound, in data set [1], the “improvement over baseline versus placebo on the MADRS” value was “significantly better improvement over baseline than the placebo group”. Also, in data set [1] (pramipexole 5.0 mg/day group), the patients reporting nausea is listed as 76%; the patients reporting vomiting is recorded as 39%; the “patients who discontinued treatment prematurely, mainly because of adverse events” value is listed as 57.6%. In data set [1] (pramipexole 5.0 mg/day group, scale not stated, no p value because of high drop-out rate), the “improvement at week 8 (change from baseline)” value is −15.00. The “activity in animal behavior tests simulating symptoms of depression” value in data set [2] is “active”.
